Entries after “also recorded” stand apart in the source; their conditions may differ.
What was measured:
IP6K2 [1] = assay: IP7 measurement in vivo (IP6K activity as IP7/IP6 ratio in [3H]inositol labeled cells); conditions: HeLa cells with or without overexpression of IP6K2
HeLa cells [2] = assay: Cell death (% apoptotic nuclei) in IP6K2 siRNA depleted cells; format: cell-based; conditions: IP6K2 RNA interference (~40% less IP7 formation)
Text: (§1) FIG. 5A. […] FIG. 5B. […] FIG. 5C. […] FIG. 5D. […] FIG. 5E.

HeLa cells [3] = assay: Cell death / survival (MTT assay) with IP6K2 overexpression; format: cell-based; conditions: HeLa cells transfected with IP6K2
Text: as §1

IP6K2 [4] = assay: Intracellular localization of IP6K2 (nuclei isolation, fluorescence microscopy); format: cell-based; conditions: for effect on nuclear vs cytosolic myc-IP6K2, nuclei isolation and densitometry: 60 μg total protein per lane, anti-myc blot; for effect on intracellular localization of IP6K2: drug-treated cells
Protocol: FIG. 4A-4F. HSP90 regulates intracellular localization of IP6K2. FIG. 4A. […] Following drug treatment, nuclei were isolated from the rest of the cytoplasm. In each lane, 60 μg of total protein was loaded and the localization of IP6K2 assessed with an anti-myc antibody. Bands were analyzed by densitometry and changes in localization were calculated with the basal distribution of IP6K2 as a control. […] FIG. 4B. GFP-IP6K2 stably expressed in HEK 293 cells is distributed to a similar extent in cytosol and nucleus. Cells were stained with Hoechst stain for nucleus. FIG. 4C. Overexpression of pDSRed-HSP90 in HEK293 stably expressing GFP-IP6K2 retains IP6K2 completely in the cytosol. HSP90 also co-localizes well with IP6K2 as indicated by the yellow color of the merged picture. FIG. 4D. […] FIG. 4E. […] Cells overexpressing HSP90 (arrow a) display co-localization of IP6K2-HSP90 in the cytosol, whereas in cells lacking overexpressed HSP90 (arrow b), IP6K2 is nuclear. FIG. 4F. Effects of HSP90 depletion on intracellular localization of IP6K2. In HeLa, cells transiently expressed GFP-IP6K2 occurs diffusely throughout cells. Depletion of HSP90 by RNAi (depletion is 100% as shown in FIG. 6), leads to nuclear accumulation of IP6K2.
Isolation of nuclei: Nuclei were separated from other cytoplasmic components using commercial kits (See ‘Reagents’ section). Preparation was checked each time by running appropriate controls for nucleus (p84).
Fluorescence microscopy: HeLa cells were transfected with pEGFP+IP6K1/IP6K2/IP6K3, either alone or with pDsRed HSP90α with or without drug or siRNA treatment, fixed with ice cold methanol, stained with Hoechst stain for nucleus and observed under an Ultraview1 confocal microscope.

IP6K2-HSP90 binding [5] = target: T1, IP6K2-HSP90 binding; assay: In vitro HSP90-IP6K2 binding assay with purified proteins; design: species or system human; conditions: purified proteins; 250 nM HSP90 from HeLa preincubated with drug 30 min 37° C., then myc-IP6K2 beads; western blot; read-out: concentration reducing IP6K2-HSP90 binding by 50%
T1 construct: other: purified proteins; 250 nM HSP90 from HeLa preincubated with d
Text: (§2) FIG. 3A, 3B, 3C. […] FIG. 3E.

IP6K2-HSP90 binding [6] = target: T2, IP6K2-HSP90 binding (Homo sapiens, UniProt Q9UHH9); assay: as above; conditions: IP6K2 preincubated with increasing concentrations of IP6 15 min, then HSP90 1 h
T2 construct: purified endogenous HSP90 (HeLa); made in house; host or cells: HSP90 purified from HeLa cells (endogenous); myc-IP6K2 immunoprecipitated from transfected HEK 293 cells
T2 sequence (Q9UHH9 1-426): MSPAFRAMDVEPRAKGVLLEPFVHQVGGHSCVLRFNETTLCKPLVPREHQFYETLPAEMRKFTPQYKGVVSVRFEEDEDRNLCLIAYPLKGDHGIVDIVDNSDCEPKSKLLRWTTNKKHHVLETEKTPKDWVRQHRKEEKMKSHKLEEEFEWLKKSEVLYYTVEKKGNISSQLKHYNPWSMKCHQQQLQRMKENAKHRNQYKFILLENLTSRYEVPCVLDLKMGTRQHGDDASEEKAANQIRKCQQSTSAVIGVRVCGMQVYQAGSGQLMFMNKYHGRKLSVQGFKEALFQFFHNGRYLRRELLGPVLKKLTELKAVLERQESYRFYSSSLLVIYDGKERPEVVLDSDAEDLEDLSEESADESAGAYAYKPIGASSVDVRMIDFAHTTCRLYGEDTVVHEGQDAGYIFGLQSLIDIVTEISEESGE
Text: as §2

HeLa cells [7] = conditions: reference 10; cited from earlier work
IP6K2-HSP90 binding [8] = target: IP6K2-HSP90 binding (Homo sapiens, UniProt P07900); assay: Co-immunoprecipitation of HSP90 with IP6K2 from drug-treated cells; format: cell-based; conditions: for effect on IP6K2-HSP90 binding, coimmunoprecipitation: HEK 293 cells; for effect on binding of HSP90 with IP6K2, coimmunoprecipitation: myc-IP6K2-transfected HeLa cells, CP 30 overnight, NB 500 μM overnight, ST 1 μM 6 h, AAG 1 μM overnight
Protocol: as §2
Cell culture: HeLa and HEK 293 were cultured as described (18). […] HEK293 and HeLa cells were transiently transfected using polyfect transfection reagent (Qiagen). siRNAs were transfected with ‘Hiperfect’ transfection reagent (Qiagen).
Co-immunoprecipitation: Cells/mouse brain were homogenised in lysis buffer (20 mM Tris pH 7.4, 150 mM NaCl, 0.5% NP-40, and protease inhibitor cocktails). Equal amounts of protein were immunoprecipitated at 4° C. overnight using the protein A/G agarose beads in the presence of antibody. After immunoprecipitation, beads were washed four times with lysis buffer. Co-immunoprecipitates were resolved by SDS-PAGE and analysed by western blotting.

HSP90 = HSP90 (Homo sapiens, UniProt P07900); assay: HSP90 binding to ATP-agarose beads; conditions: increasing concentrations, FIG. 7
Text: Beads were washed with wash buffer and run on 4-12% SDS-PAGE. Bound HSP90 was detected by western blotting with anti-HSP90 monoclonal antibody.

IP6K2-HSP90 binding [9] = assay: In vitro HSP90-IP6K2 binding assay with purified proteins; design: species or system human; conditions: data not shown
Text: as §2

Compound	effect on IP6K2 activity / IP7 formation in cells (IP6K2 [1])	change of drug-elicited cell death in IP6K2 depleted cells (HeLa cells [2])	change of drug's apoptotic action on IP6K2 overexpression (HeLa cells [3])	effect on nuclear vs cytosolic myc-IP6K2, nuclei isolation and densitometry (IP6K2 [4])	effect on intracellular localization of IP6K2 (IP6K2 [4])	IC50 (IP6K2-HSP90 binding [5])	effect on IP6K2-HSP90 binding, coimmunoprecipitation (IP6K2-HSP90 binding [8])	effect on binding of HSP90 with IP6K2, coimmunoprecipitation (IP6K2-HSP90 binding [8])	also measured
C=CCNC1=C2C[C@@H](C)C[C@H](OC)[C@H](O)[C@@H](C)/C=C(\C)[C@H](OC(N)=O)[C@@H](OC)/C=C\C=C(/C)C(=O)NC(=CC1=O)C2=O [AAG, 17-aminoallyl geldanamycin]	diminishes IP6K activity; also recorded: less IP7 formation	unaffected by IP6K2 depletion	unaffected by IP6K2 overexpression	elicits the opposite effect	increases IP6K2 localization in the cytosol				
CO[C@@H]1[C@@H](OC(N)=O)[C@@H](O)[C@H](Oc2ccc3c(O)c(NC(=O)c4ccc(O)c(CC=C(C)C)c4)c(=O)oc3c2C)OC1(C)C [novobiocin]	augmented IP6K2 activity	reduced by almost half	markedly enhanced by IP6K2 overexpression	increases nuclear and decreases cytosolic IP6K2	enhance nuclear levels of IP6K2	~200 µM			effect on IP6K2 activity / IP7 formation in cells (IP6K2 [1]; listed as NB): increase IP6K activity
O=P(O)(O)O[C@H]1[C@H](OP(=O)(O)O)[C@@H](OP(=O)(O)O)[C@H](OP(=O)(O)O)[C@@H](OP(=O)(O)O)[C@H]1OP(=O)(O)O [IP6]									effect of IP6 on in vitro binding of HSP90 to myc IP6K2 (IP6K2-HSP90 binding [6]): abolished
CN[C@@H]1C[C@H]2O[C@@](C)([C@@H]1OC)n1c3ccccc3c3c4c(c5c6ccccc6n2c5c31)C(=O)NC4 [staurosporine]	augmented IP6K2 activity		markedly enhanced by IP6K2 overexpression		elicits mitochondrial translocation of IP6K2		diminish IP6K2-HSP90 binding	disrupt the binding of HSP90 with IP6K2	effect on IP6K2 activity / IP7 formation in cells (IP6K2 [1]; listed as ST): increase IP6K activity; change of drug's apoptotic effects on IP6K2 depletion, previously reported (HeLa cells [7]): IP6K2 depletion prevents the apoptotic effects; effect on HSP90 binding to ATP-agarose beads (HSP90): inhibits binding of HSP90 to ATP-agarose beads in a concentration dependent manner
N.N.[Cl][Pt][Cl] [cisplatin]	augmented IP6K2 activity	reduced by almost half	markedly enhanced by IP6K2 overexpression		enhance nuclear levels of IP6K2	1 to 5 µM	diminish IP6K2-HSP90 binding	disrupt the binding of HSP90 with IP6K2	effect on IP6K2 activity / IP7 formation in cells (IP6K2 [1]; listed as CP): increase IP6K activity
p23: a co-chaperone which binds HSP90 with high affinity									effect of p23 on IP6K2-HSP90 coprecipitation (IP6K2-HSP90 binding [8]; HeLa cells, data not shown): does not affect their coprecipitation in HeLa cells; effect of p23 on in vitro IP6K2-HSP90 binding (IP6K2-HSP90 binding [9]): only influences in vitro IP6K2-HSP90 binding at a high molar ratio (1:20)

From US8080367B2, “Regulation of cell survival by HSP90 and IP6K2” (The Johns Hopkins University, priority 2006, dated 2011)
